ChEMBL document CHEMBL5512607, “Journey of Von Hippel-Lindau (VHL) E3 ligase in PROTACs design: From VHL ligands to VHL-based degraders” (Eur J Med Chem, 2024)

What was measured:
[1] = PROTAC activity at VHL/N-terminal His-tagged human p38alpha expressed in […] assessed as p38alpha degradation
[2] = test system: von Hippel-Lindau disease tumor suppressor/Mitogen-activated protein kinase 14; assay: PROTAC activity at VHL/N-terminal His-tagged human p38alpha expressed in […] assessed as maximal degradation relative to control
[3] = target: T1, von Hippel-Lindau disease tumor suppressor (Homo sapiens, UniProt P40337); assay: Binding affinity to VHL (unknown origin) assessed as dissociation constant by fluorescence polarization assay
T1 sequence (P40337 whole entry): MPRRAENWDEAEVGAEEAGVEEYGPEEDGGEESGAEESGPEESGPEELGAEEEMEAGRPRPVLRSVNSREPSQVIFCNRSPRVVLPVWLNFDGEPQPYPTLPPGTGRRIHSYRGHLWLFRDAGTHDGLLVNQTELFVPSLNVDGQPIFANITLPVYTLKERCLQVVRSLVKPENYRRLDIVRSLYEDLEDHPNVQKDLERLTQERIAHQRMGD

[4] = target: von Hippel-Lindau disease tumor suppressor/Bromodomain-containing protein 4 (Homo sapiens, UniProt O60885+P40337); assay: PROTAC activity at human VHL/BRD4 in human HeLa cells assessed as degradation of BRD4 incubated for 24 hrs by Western blot analysis; assay type: cell-based
Sequence of von Hippel-Lindau disease tumor suppressor/Bromodomain-containing protein 4 (P40337 whole entry, looked up, other chains not shown, the tested form may be a part): as the sequence (P40337 whole entry) above

[5] = target: T1, von Hippel-Lindau disease tumor suppressor; assay: Inhibition of NanoLuc-fused VHL (unknown origin) transfected in live HEK293 cells using NanoGlo as substrate incubated for 1 hrs by tracer based NanoBRET assay; assay type: cell-based
[6] = target: Von Hippel-Lindau disease tumor suppressor/Elongin B/Elongin C (Homo sapiens, UniProt P40337); assay: Inhibition of VHL/Elongin B/Elogin C (unknown origin) using FAM-DEALA-Hyp-YIPD as substrate by fluorescence polarization assay; assay type: protein-complex assay
Sequence of Von Hippel-Lindau disease tumor suppressor/Elongin B/Elongin C (P40337 whole entry, looked up): as the sequence (P40337 whole entry) above

[7] = target: T2, von Hippel-Lindau disease tumor suppressor/Estrogen receptor (Homo sapiens, UniProt P03372+P40337); assay: PROTAC activity at VHL E3 ligase/ERalpha in human MCF7 cells assessed as reduction in ERalpha protein level by Western blot analysis; assay type: cell-based
Target sequence in this assay (P03372 whole entry): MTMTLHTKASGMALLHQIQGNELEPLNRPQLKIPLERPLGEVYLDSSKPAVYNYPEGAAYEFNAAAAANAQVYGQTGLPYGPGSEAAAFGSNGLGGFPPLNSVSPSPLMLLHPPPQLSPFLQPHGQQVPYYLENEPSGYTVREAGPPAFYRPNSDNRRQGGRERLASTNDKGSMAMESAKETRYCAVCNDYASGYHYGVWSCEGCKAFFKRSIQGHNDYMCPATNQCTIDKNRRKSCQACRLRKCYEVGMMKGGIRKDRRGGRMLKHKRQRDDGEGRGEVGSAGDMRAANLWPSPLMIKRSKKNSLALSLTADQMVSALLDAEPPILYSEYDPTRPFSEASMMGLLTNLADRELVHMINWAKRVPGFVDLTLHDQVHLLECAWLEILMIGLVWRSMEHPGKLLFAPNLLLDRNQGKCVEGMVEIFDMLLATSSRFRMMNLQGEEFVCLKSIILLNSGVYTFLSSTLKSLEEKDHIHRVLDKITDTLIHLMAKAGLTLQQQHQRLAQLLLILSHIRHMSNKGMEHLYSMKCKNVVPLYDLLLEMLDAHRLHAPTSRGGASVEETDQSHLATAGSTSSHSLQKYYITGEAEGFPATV
Target sequence in this assay (P40337 whole entry): as the sequence (P40337 whole entry) above

[8] = target: T2, von Hippel-Lindau disease tumor suppressor/Estrogen receptor; assay: PROTAC activity at VHL E3 ligase/ERalpha in human T47D cells assessed as maximal degradation of ERalpha protein level at 7.7 nM by Western blot analysis relative to control; assay type: cell-based
Target sequence in this assay (P03372 whole entry, looked up): as the sequence (P03372 whole entry) above
Target sequence in this assay (P40337 whole entry, looked up): as the sequence (P40337 whole entry) above

[9] = test system: von Hippel-Lindau disease tumor suppressor/Epidermal growth factor receptor (Homo sapiens), P00533+P40337 [L858R,T790M]; assay: PROTAC activity at VHL/EGFR L858R/T790M double mutant in human NCI-H1975 cells assessed as maximal degradation of EGFR incubated for 24 hrs by immunoblotting analysis relative to control; assay type: cell-based
Sequence of von Hippel-Lindau disease tumor suppressor/Epidermal growth factor receptor (Homo sapiens), P00533+P40337 [L858R,T790M] (P00533 whole entry T790M/L858R): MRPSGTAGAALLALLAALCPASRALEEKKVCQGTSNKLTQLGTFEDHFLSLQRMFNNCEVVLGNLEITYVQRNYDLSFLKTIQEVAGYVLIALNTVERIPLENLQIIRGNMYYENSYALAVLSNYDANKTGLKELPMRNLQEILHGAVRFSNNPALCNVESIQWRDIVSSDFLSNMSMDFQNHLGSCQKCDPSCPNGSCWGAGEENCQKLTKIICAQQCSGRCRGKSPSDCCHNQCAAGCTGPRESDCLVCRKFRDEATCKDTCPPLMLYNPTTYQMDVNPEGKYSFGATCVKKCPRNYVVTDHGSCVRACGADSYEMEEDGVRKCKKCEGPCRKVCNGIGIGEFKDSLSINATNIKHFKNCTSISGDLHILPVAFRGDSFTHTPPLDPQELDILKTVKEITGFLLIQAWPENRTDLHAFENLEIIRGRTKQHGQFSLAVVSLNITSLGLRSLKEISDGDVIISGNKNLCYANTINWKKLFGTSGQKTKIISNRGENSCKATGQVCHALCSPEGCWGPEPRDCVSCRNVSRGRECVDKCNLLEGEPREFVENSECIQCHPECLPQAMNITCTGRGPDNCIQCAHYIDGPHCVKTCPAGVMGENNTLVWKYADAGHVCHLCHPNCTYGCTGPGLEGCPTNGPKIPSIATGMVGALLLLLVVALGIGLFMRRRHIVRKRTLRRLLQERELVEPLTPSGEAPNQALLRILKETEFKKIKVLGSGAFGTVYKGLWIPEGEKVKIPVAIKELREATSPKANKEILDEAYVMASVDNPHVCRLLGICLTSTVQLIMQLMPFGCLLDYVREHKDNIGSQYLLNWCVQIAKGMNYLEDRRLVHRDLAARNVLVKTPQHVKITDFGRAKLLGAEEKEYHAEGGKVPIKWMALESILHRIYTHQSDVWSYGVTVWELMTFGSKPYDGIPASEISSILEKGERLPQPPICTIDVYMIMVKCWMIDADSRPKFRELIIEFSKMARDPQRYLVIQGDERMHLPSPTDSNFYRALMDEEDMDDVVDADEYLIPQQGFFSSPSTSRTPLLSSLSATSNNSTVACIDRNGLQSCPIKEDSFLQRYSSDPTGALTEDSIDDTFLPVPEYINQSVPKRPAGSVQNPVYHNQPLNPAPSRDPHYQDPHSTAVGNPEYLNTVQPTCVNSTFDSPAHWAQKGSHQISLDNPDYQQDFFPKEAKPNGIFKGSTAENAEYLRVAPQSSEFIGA
Sequence of von Hippel-Lindau disease tumor suppressor/Epidermal growth factor receptor (Homo sapiens), P00533+P40337 [L858R,T790M] (P40337 whole entry partner): as the sequence (P40337 whole entry) above

[10] = target: T3, von Hippel-Lindau disease tumor suppressor/Androgen receptor (Homo sapiens, UniProt P10275+P40337); assay: PROTAC activity at VHL/AR in human LNCaP cells assessed as maximum degradation of AR at 75 uM incubated for 16 hrs by Western blot analysis relative to control; assay type: cell-based
Target sequence in this assay (P10275 whole entry, looked up): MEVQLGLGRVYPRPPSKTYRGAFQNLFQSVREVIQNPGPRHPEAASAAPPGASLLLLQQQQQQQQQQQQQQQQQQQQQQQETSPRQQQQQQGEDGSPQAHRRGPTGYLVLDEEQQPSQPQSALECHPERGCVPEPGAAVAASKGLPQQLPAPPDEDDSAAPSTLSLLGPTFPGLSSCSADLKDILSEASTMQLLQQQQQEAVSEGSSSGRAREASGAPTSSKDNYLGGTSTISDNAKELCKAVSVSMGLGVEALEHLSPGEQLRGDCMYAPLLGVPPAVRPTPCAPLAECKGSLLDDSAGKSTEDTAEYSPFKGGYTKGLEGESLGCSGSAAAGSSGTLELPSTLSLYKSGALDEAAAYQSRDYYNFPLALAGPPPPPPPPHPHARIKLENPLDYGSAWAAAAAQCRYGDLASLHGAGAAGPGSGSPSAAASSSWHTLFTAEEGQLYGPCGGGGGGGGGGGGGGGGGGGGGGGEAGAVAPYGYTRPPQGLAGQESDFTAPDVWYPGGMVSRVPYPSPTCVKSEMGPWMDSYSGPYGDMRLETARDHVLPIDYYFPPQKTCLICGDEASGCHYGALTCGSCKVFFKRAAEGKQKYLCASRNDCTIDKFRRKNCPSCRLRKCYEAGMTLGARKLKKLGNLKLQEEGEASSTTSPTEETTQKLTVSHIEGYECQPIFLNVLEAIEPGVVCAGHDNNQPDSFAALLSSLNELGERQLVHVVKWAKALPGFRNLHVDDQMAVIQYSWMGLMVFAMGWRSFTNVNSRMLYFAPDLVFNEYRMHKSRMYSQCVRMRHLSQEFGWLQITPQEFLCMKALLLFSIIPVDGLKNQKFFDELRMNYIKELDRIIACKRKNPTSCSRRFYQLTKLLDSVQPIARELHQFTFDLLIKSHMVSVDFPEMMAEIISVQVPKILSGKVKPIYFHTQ
Target sequence in this assay (P40337 whole entry, looked up): as the sequence (P40337 whole entry) above

[11] = target: T3, von Hippel-Lindau disease tumor suppressor/Androgen receptor; assay: PROTAC activity at VHL/AR in human LNCaP cells assessed as induction of AR degradation by Western blot analysis; assay type: cell-based
Target sequence in this assay (P10275 whole entry): as the sequence (P10275 whole entry, looked up) above
Target sequence in this assay (P40337 whole entry): as the sequence (P40337 whole entry) above

## COc1cc2c(Oc3ccc(NC(=O)C4(C(=O)Nc5ccc(F)cc5)CC4)cc3F)ccnc2cc1OCCCCOCCCCOCC(=O)N[C@@H](C(=O)N1C[C@H](O)C[C@H]1C(=O)NCc1ccc(-c2scnc2C)cc1)C(C)(C)C
[1]
  DC50: 7.16 nM
[2]
  Emax: 97.4%

## COc1cc(-c2scnc2C)c(F)cc1CNC(=O)[C@@H]1C[C@@H](O)CN1C(=O)[C@H](NC(=O)C1(F)CC1)C(C)(C)C
[3]
  Kd: 134 nM

## COc1cc(-c2scnc2C)cc(OC)c1CNC(=O)[C@@H]1C[C@@H](O)CN1C(=O)[C@H](NC(=O)C1(C#N)CC1)C(C)(C)C
[3]
  Kd: 6240 nM

## Cc1cc(-c2scnc2C)ccc1[C@H](C)NC(=O)[C@@H]1C[C@@H](O)CN1C(=O)[C@H](NC(=O)C1(F)CC1)C(C)(C)C
[3]
  Kd: 37 nM

## CC(=O)N[C@H](C(=O)N1C[C@H](O)[C@@H](F)[C@H]1C(=O)Nc1ccc(-c2scnc2C)cc1)C(C)(C)C
[4]
  DC50: 10 nM

## CC(=O)N[C@H](C(=O)N1C[C@H](O)C[C@H]1C(=O)N[C@H](C)c1ccc(-c2scnc2C)cc1)C(C)(C)C
[5]
  IC50: 26000 nM

## Cc1cc(CC(=O)N2C[C@H](O)C[C@H]2C(=O)NCc2ccc(-c3ocnc3C)cc2)on1
[6]
  IC50: 12700 nM

## Cc1ncsc1-c1ccc([C@H](C)NC(=O)[C@@H]2C[C@@H](O)CN2C(=O)[C@H](NC(=O)C2(F)CC2)C(C)(C)C)cc1F
[3]
  Kd: 73 nM

## Cc1ncsc1-c1ccc([C@H](C)NC(=O)[C@@H]2C[C@@H](O)CN2C(=O)[C@@H](NC(=O)CCCCOc2ccc(/C=C/NC(=O)c3ccc(C(=O)c4c(-c5ccc(O)cc5)sc5cc(O)ccc45)cc3)cc2)C(C)(C)C)cc1
[7]
  DC50: 10 nM
[8]
  Emax: > 95%

## Cc1ncsc1-c1ccc(CNC(=O)[C@H]2C[C@H](O)CN2C(=O)[C@H](NC(=O)CCCCCOCCCCOCCCCOc2cc3ncnc(Nc4ccc(F)c(Cl)c4)c3cc2NC(=O)/C=C/CN(C)C)C(C)(C)C)cc1
[9]
  Emax: 79.1%

## Cc1ncsc1-c1ccc(CNC(=O)[C@@H]2C[C@@H](O)CN2C(=O)[C@H](NC(=O)C2(C#N)CC2)C(C)(C)C)cc1F
[3]
  Kd: 97 nM

## Cc1cc(-c2scnc2C)ccc1CNC(=O)[C@@H]1C[C@@H](O)CN1C(=O)[C@H](NC(=O)C1(C#N)CC1)C(C)(C)C
[3]
  Kd: 149 nM

## Cc1cc([C@H](C(=O)N2C[C@H](S(=O)(=O)F)C[C@H]2C(=O)N[C@@H](CC(=O)N2CCC(C#Cc3ccc(C(=O)N[C@H]4C(C)(C)[C@H](Oc5ccc(C#N)c(Cl)c5)C4(C)C)cc3)CC2)c2ccc(-c3scnc3C)cc2)C(C)C)on1
[10]
  Emax: 59%
[11]
  DC50: 212 nM

## O=C(NCc1ccc(Cl)cc1)[C@@H]1C[C@@H](O)CN1C(=O)c1ccccc1Cl
[6]
  IC50: 52000 nM

## COc1cc2c(Oc3ccc(NC(=O)C4(C(=O)Nc5ccc(F)cc5)CC4)cc3F)ccnc2cc1OCCOCCOCCOc1cc(-c2scnc2C)ccc1CNC(=O)[C@@H]1C[C@@H](O)CC1C(=O)[C@H](C(C)C)C1Cc2ccccc2C1=O (some centres undefined)
[1]
  DC50: 66.2 nM
[2]
  Emax: 99.4%
